Data reported in patent US8999981B2, “3-amido-pyrrolo[3,4-C]pyrazole-5(1H, 4H,6H) carbaldehyde derivatives” (Pfizer Inc., priority 2007, dated 2015).

Molecular target: Protein Kinase C beta 2 (PKCβII) (Homo sapiens (Human), UniProt P05771)
Experiment: PKCβII coupled PK/LDH spectrophotometric kinase assay
Type: biochemical
Conditions: apparent Ki, ATP-competitive model (Morrison equation); 0.1 mM ATP, 30° C.; read-out: PKCb Ki

Chain of Protein Kinase C beta 2 (PKCβII) (P05771 other isoform, or with tags, fused parts or gaps): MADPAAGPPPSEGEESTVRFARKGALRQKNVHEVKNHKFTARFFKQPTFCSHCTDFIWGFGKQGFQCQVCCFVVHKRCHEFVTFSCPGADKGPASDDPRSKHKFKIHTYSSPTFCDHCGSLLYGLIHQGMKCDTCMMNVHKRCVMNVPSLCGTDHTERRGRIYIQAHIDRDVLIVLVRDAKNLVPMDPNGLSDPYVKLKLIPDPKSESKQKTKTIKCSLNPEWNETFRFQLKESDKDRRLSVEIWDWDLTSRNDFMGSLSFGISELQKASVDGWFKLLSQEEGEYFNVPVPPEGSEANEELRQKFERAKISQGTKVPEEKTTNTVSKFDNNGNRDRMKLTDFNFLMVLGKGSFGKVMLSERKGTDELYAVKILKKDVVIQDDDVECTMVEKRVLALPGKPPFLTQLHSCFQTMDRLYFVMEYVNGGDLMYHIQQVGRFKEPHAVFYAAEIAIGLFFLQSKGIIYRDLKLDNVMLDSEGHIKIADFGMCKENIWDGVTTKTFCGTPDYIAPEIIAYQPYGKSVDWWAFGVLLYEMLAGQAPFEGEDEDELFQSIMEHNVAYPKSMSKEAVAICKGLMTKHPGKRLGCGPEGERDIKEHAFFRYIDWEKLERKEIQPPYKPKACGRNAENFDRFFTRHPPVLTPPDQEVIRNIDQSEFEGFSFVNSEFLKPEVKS

First: CCc1cc(C(=O)Nc2n[nH]c3c2CN(C(=O)N2C[C@@H](C)N(CC4CCOCC4)C[C@@H]2C)C3(C)C)no1 [Example F19]
Second: CCCc1cc(C(=O)Nc2n[nH]c3c2CN(C(=O)N2C[C@@H](C)N(CC4CCOCC4)C[C@@H]2C)C3(C)C)no1 [Example F24]
The Ki of the first is 2.2-fold lower: 26.5 nM for the first, 59.4 nM for the second.

First: Cc1nc(C)c(C(=O)Nc2n[nH]c3c2CN(C(=O)N2C[C@@H](C)N(CC4CCOCC4)C[C@@H]2C)C3(C)C)o1 [Example F20]
Second: Cc1nc(C(=O)Nc2n[nH]c3c2CN(C(=O)N2C[C@@H](C)N(CC4CCOCC4)C[C@@H]2C)C3(C)C)c(C)o1 [Example F23]
The Ki of the first is 1.6-fold lower: 19.7 nM for the first, 31.3 nM for the second.

`Cc1cc(C(=O)Nc2n[nH]c3c2CN(C(=O)N2C[C@@H](C)N(CC4CCOCC4)C[C@@H]2C)C3(C)C)on1` [Example F21] and `Cc1nonc1C(=O)Nc1n[nH]c2c1CN(C(=O)N1C[C@@H](C)N(CC3CCOCC3)C[C@@H]1C)C2(C)C` [Example F22] are within 1.5-fold of each other in Ki: 38.1 nM for the first, 47.3 nM for the second.

First: CCc1nc(C(=O)Nc2n[nH]c3c2CN(C(=O)N2C[C@@H](C)N(CC4CCOCC4)C[C@@H]2C)C3(C)C)cs1 [Example F25]
Second: C[C@@H]1CN(C(=O)N2Cc3c(NC(=O)c4cnccn4)n[nH]c3C2(C)C)[C@@H](C)CN1CC1CCOCC1 [Example F57]
The Ki of the first is 1.6-fold lower: 33.3 nM for the first, 52.7 nM for the second. The first binds more tightly here.

Going from `CCc1ccc(C(=O)Nc2n[nH]c3c2CN(C(=O)N2C[C@@H](C)N(C4CCOCC4)C[C@@H]2C)C3(C)C)nc1` [Example F51] to `Cc1ccc(C(=O)Nc2n[nH]c3c2CN(C(=O)N2C[C@@H](C)N(C4CCOCC4)C[C@@H]2C)C3(C)C)nc1` [Example F54], the Ki rises from less than 10 nM to 12.2 nM.

`C[C@@H]1CN(C(=O)N2Cc3c(NC(=O)c4ccc(N5CCOCC5)cn4)n[nH]c3C2(C)C)[C@@H](C)CN1C1CCOCC1` [Example F52] and `C[C@@H]1CN(C(=O)N2Cc3c(NC(=O)c4ccc(Cl)cn4)n[nH]c3C2(C)C)[C@@H](C)CN1C1CCOCC1` [Example F56] cannot be ordered by Ki: less than 10 nM for the first, less than 10 nM for the second.

Going from `C[C@@H]1CN(C(=O)N2Cc3c(NC(=O)c4ccncn4)n[nH]c3C2(C)C)[C@@H](C)CN1C1CCOCC1` [Example F53] to `C[C@@H]1CN(C(=O)N2Cc3c(NC(=O)c4ccc(C#N)cn4)n[nH]c3C2(C)C)[C@@H](C)CN1C1CCOCC1` [Example G1, 5-cyano-N-(5-{[(2S,5R)-2,5-dimethyl-4-(tetrahydro-2H-pyran-4-yl)piperazin-1-yl]carbonyl}-6,6-dimethyl-1,4,5,6-tetrahydropyrrolo[3,4-c]pyrazol-3-yl)pyridine-2-carboxamide], the Ki falls from 24 nM to less than 10 nM.

`COc1ccc(C(=O)Nc2n[nH]c3c2CN(C(=O)N2C[C@@H](C)N(C4CCOCC4)C[C@@H]2C)C3(C)C)nc1` [Example F55] and `C[C@@H]1CN(C(=O)N2Cc3c(NC(=O)c4ccc(C#N)cn4)n[nH]c3C2(C)C)[C@@H](C)CN1CC1CCOCC1` [Example G3] cannot be ordered by Ki: less than 10 nM for the first, less than 10 nM for the second.

First: C[C@@H]1CN(C(=O)N2Cc3c(NC(=O)c4ncccn4)n[nH]c3C2(C)C)[C@@H](C)CN1CC1CCOCC1 [Example F58]
Second: C[C@@H]1CN(C(=O)N2Cc3c(NC(=O)c4ccc(C(F)(F)F)cn4)n[nH]c3C2(C)C)[C@@H](C)CN1CC1CCOCC1 [Example F60]
The Ki of the first is 32-fold higher: 133 nM for the first, 4.17 nM for the second. The second binds more tightly here.

`Cc1noc(C)c1CC(=O)Nc1n[nH]c2c1CN(C(=O)N1C[C@@H](C)N(CC3CCOCC3)C[C@@H]1C)C2(C)C` [Example F59] and `C[C@@H]1CN(C(=O)N2Cc3c(NC(=O)c4ccc(C#N)cn4)n[nH]c3C2(C)C)[C@@H](C)CN1C` [Example G2] are within 1.5-fold of each other in Ki: 20 nM for the first, 28.7 nM for the second.
